Patent US11903936B2, “Anti-malarial agents” (THE BOARD OF REGENTS OF THE UNIVERSITY OF TEXAS SYSTEM, priority 2019, dated 2024)
In brackets after ≈: the same amount, converted by molar mass. Read-outs that look alike come from different tables or passages of the source.

How the values were obtained:
[1] = molecular target: Human DHODH (Homo sapiens (Human), UniProt Q02127); test: DHODH kinetic analysis (DCIP assay); type: biochemical; conditions: 25° C.
Protocol: (§1) DHODH Kinetic Analysis. […] Inhibitor stocks (100 mM) were prepared in DMSO in amber bottles. A 3-fold dilution series was generated in DMSO from these stocks and then dispensed into assay buffer via a 1/100 dilution to generate a final concentration range of 0.001-100 μM (1% DMSO final). Data were collected using triplicate technical replicates and where indicated additional biological replicates were collected (the number of biological replicates is provided in parenthesis). IC50's were determined by fitting the data to log (inhibitor) vs. response equation Y=Bottom+(Top−Bottom)/(1+10^((X−Log IC50))) in GraphPad Prism.

[2] = molecular target: Mouse DHODH (Mus musculus (Mouse), UniProt O35435); test: DHODH kinetic analysis (DCIP assay); type: biochemical; conditions: 25° C.
Sequence of Mouse DHODH (O35435 whole entry): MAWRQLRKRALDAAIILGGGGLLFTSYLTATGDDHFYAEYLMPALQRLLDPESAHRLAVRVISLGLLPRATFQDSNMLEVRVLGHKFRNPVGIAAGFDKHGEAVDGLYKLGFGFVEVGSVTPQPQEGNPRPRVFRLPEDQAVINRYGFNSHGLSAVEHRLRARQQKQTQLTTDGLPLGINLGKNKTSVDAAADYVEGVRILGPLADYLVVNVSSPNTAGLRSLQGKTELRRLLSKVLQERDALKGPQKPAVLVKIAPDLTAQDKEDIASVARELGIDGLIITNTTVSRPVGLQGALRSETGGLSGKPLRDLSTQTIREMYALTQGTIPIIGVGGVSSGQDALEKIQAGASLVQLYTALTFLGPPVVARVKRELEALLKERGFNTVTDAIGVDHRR
Protocol: as §1

[3] = molecular target: Rat DHODH (Rattus norvegicus (Rat), UniProt Q63707); test: DHODH kinetic analysis (DCIP assay); type: biochemical; conditions: 25° C.
Sequence of Rat DHODH (Q63707 whole entry): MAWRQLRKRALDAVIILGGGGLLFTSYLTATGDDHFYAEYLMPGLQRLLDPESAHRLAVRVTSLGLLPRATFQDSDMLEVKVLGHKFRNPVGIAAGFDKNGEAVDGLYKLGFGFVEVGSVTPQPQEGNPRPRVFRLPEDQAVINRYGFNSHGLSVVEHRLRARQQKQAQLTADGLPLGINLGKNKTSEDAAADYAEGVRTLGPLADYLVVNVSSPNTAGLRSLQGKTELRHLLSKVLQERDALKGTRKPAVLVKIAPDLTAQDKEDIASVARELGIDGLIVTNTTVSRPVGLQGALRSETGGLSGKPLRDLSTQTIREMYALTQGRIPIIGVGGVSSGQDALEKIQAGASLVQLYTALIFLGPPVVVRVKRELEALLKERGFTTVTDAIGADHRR
Protocol: as §1

[4] = system: parasitized human erythrocytes; test: in vivo efficacy in the humanized SCID mouse model; conditions: for DOR (day of recrudescence): 50 mg/kg dose b.i.d. for 6 days; for CED90: estimated average blood concentration that induces no net parasite growth
Description: During the study, samples of peripheral blood were taken from mice to measure the concentration of compounds and/or their metabolites.
CED90: estimated average blood concentration that induces no net parasite growth.
DoR was estimated by linear interpolation of % parasitemia the day before the rise to PO and the % parasitemia the day after reaching PO.

[5] = in vitro; conditions: human
[6] = molecular target: T1, Dog DHODH (Canis lupus familiaris, UniProt A0A8I3MWX2); test: biochemical
T1 sequence (A0A8I3MWX2 1-406): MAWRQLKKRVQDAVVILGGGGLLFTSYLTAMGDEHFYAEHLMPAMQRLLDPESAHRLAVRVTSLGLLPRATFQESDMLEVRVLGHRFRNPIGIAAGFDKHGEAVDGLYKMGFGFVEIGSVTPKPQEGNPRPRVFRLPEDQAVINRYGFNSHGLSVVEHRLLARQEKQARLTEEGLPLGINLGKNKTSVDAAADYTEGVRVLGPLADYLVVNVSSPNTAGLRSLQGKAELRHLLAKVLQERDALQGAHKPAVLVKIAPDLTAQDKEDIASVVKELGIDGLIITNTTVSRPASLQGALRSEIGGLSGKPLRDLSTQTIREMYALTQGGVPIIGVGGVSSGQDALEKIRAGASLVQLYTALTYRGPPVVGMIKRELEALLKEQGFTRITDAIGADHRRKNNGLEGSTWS
Protocol: as §1

[7] = molecular target: P. vivax DHODH (Plasmodium vivax, UniProt A5K1N1); test: biochemical; type: biochemical
Sequence of P. vivax DHODH (A5K1N1 1-572): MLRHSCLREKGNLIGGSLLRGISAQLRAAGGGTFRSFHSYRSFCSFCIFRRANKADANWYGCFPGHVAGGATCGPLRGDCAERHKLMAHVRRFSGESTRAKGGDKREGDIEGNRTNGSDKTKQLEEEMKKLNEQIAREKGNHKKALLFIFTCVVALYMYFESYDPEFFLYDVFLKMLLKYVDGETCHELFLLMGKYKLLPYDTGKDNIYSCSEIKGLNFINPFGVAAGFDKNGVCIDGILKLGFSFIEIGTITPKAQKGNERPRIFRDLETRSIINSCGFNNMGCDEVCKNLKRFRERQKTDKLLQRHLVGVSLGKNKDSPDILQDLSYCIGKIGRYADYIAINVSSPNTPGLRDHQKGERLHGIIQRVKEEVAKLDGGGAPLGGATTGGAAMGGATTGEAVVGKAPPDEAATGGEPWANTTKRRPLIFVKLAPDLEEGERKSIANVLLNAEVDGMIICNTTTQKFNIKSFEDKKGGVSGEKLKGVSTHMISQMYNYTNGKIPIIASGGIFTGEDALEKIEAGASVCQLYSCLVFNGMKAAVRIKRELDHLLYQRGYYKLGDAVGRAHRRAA
Protocol: as §1

[8] = physchem; conditions: pH 6.5, fassif
[9] = molecular target: P. falciparum DHODH (Plasmodium falciparum (isolate 3D7), UniProt Q08210); type: biochemical; conditions: 25° C., DCIP assay
Sequence of P. falciparum DHODH (Q08210 24-569 limits assumed): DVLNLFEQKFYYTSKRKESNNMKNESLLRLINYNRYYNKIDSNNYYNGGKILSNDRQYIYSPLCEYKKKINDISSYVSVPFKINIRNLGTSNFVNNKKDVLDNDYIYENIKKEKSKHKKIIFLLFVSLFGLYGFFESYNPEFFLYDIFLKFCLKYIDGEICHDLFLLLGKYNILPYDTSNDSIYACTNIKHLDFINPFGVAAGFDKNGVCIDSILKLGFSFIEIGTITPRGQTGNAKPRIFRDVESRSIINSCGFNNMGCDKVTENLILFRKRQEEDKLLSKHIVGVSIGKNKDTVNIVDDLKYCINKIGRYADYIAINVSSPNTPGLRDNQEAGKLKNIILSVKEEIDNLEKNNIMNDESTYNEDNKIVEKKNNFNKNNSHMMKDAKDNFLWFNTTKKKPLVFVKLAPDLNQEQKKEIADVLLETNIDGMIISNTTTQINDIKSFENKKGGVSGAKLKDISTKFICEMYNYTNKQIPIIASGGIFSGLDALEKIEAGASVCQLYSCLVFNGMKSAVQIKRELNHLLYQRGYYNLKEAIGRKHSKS
Protocol: Inhibitor stocks (100 mM) were prepared in DMSO in amber bottles. A 3-fold dilution series was generated in DMSO from these stocks and then dispensed into assay buffer via a 1/100 dilution to generate a final concentration range of 0.001-100 μM (1% DMSO final). Data were collected using triplicate technical replicates and where indicated additional biological replicates were collected (the number of biological replicates is provided in parenthesis). IC50's were determined by fitting the data to log (inhibitor) vs. response equation Y=Bottom+(Top−Bottom)/(1+10^((X−Log IC50))) in GraphPad Prism.

[10] = molecular target: T1, Dog DHODH; conditions: read-out: Dog DHODH IC50; 25° C., DCIP assay
Protocol: as §1

[11] = metabolic stability, Human Clint
[12] = system: P. falciparum clinical isolates; conditions: ex vivo, separate study in Indonesia, previously reported; cited from earlier work
[13] = system: P. vivax clinical isolates; conditions: ex vivo, separate study in Indonesia, previously reported; cited from earlier work
[14] = system: P. falciparum 3D7; test: P. falciparum growth and inhibition assay (SYBR Green); type: cell-based; conditions: chloroquine-sensitive 3D7 strain, 72 h, albuMAX media
Protocol: P. falciparum growth and inhibition assays. […] DSMO inhibitor stocks (as above) were diluted in DMSO using a 2 or 3-fold dilution series and then dispensed into media at 10× the final concentrations. A second step into media led to final inhibitor concentrations ranging from 0.001-30 μM and a final DMSO concentration of 0.2%. […] Data were collected using triplicate technical replicates and where indicated additional biological replicates were collected (the number of biological replicates is provided in parenthesis).

[15] = 25° C., DCIP assay, read-out: P. vivax DHODH IC50

Sequence of Human DHODH (Q02127 whole entry): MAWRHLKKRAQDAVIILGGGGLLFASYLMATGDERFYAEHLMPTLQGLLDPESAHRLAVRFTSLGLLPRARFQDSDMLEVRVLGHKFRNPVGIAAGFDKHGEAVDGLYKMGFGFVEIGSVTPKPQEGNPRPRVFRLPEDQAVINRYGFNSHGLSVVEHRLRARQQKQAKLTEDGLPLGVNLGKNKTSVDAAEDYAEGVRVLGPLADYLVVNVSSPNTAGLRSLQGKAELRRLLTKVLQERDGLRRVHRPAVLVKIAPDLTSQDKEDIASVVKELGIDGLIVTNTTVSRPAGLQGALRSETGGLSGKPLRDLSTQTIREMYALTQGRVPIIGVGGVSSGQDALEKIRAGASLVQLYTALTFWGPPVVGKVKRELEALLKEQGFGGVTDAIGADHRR

Row | Compound | IC50 [1] [µM] | IC50 [2] [µM] | IC50 [3] [µM] | microsomal CLint [5] [µL/min/mg] | further results
1 | Cc1c(C2(c3ccc(C(F)(F)F)nc3)CC2)c[nH]c1C(=O)NC(C)c1nc[nH]n1 (single isomer, unassigned) [Compound 2, 3-methyl-N-[1-(1H-1,2,4-triazol-3-yl)ethyl]-4-{1-[6-(trifluoromethyl)pyridin-3-yl]cyclopropyl}-1H-pyrrole-2-carboxamide] | > 100 | > 100 | > 100 | 11 | DOR (day of recrudescence) ([4]; SCID mouse): 22; AUCED90 ([4]; SCID mouse, b.i.d. for 6 days): 35.6 μM · h/day; CED90 ([4]; SCID mouse, b.i.d. for 6 days): 1.48 µM/day; ED90 ([4]; mouse, in vivo): 25.6 mg/kg; IC50 [6]: > 100 µM
2 | Cc1c(C2(c3ccc(C(F)(F)F)nc3)CC2)c[nH]c1C(=O)NC(C)c1cn[nH]c1 (single isomer, unassigned) [Compound 8, N-(1-(1H-pyrazol-4-yl)ethyl)-3-methyl-4-(1-(6-(trifluoromethyl)pyridin-3-yl)cyclopropyl)-1H-pyrrole-2-carboxamide] | > 100 | – | – | 66 | –
3 | Cc1cc(C(C)NC(=O)c2[nH]cc(C3(c4ccc(C(F)(F)F)nc4)CC3)c2C)n[nH]1 (single isomer, unassigned) [Compound 11, 3-methyl-N-[1-(5-methyl-1H-pyrazol-3-yl)ethyl]-4-{1-[6-(trifluoromethyl)pyridine-3-yl]cyclopropyl}-1H-pyrrole-2-carboxamide] | > 100 | – | – | 40 | –
4 | Cc1c(C2(c3ccc(C(F)(F)F)nc3)CC2)c[nH]c1C(=O)NC(C)c1cc(C#N)[nH]n1 (single isomer, unassigned) [Compound 17, N-(1-(5-cyano-1H-pyrazol-3-yl)ethyl)-3-methyl-4-(1-(6-(trifluoromethyl)pyridin-3-yl)cyclopropyl)-1H-pyrrole-2-carboxamide] | > 100 | – | – | 16 | –
5 | Cc1c(C2(c3ccc(C(F)(F)F)nc3)CC2)c[nH]c1C(=O)NC(C)c1c[nH]cn1 (single isomer, unassigned) [Compound 20, N-(1-(1H-imidazol-4-yl)ethyl)-3-methyl-4-(1-(6-(trifluoromethyl)pyridin-3-yl)cyclopropyl)-1H-pyrrole-2-carboxamide] | > 100 | – | – | 35 | –
6 | Cc1cc(C(C)NC(=O)c2[nH]cc(Cc3ccc(C(F)(F)F)nc3)c2C)no1 (single isomer, unassigned) [Compound 29, 3-methyl-N-(1-(5-methylisoxazol-3-yl)ethyl)-4-((6-(trifluoromethyl)pyridin-3-yl)methyl)-1H-pyrrole-2-carboxamide] | > 100 | > 100 | > 100 | 29 | IC50 [6]: > 100 µM
7 | Cc1c(Cc2ccc(C(F)(F)F)nc2)c[nH]c1C(=O)NC(C)c1cnn(C)c1 (single isomer, unassigned) [Compound 35, 3-methyl-N-(1-(1-methyl-1H-pyrazol-4-yl)ethyl)-4-((6-(trifluoromethyl)pyridin-3-yl)methyl)-1 H-pyrrole-2-carboxamide] | > 100 | > 100 | > 100 | – | IC50 [7]: 0.036 µM; solubility [8]: 60 µg/mL (≈ 153 µM); IC50 [6]: > 100 µM
8 | Cc1c(C2(c3ccc(C(F)(F)F)nc3)CC2)c[nH]c1C(=O)NC(C)c1cc(C(N)=O)[nH]n1 (stereo not drawn) [Compound 14] | > 100 | > 100 | > 100 | – | IC50 [9]: 0.14 ± 0.057 µM; IC50 [7, 15]: 0.17 µM; IC50 [10]: > 100 µM
9 | Cc1c(Cc2ccc(C(F)(F)F)nc2)c[nH]c1C(=O)NC(C)c1cn[nH]c1 (stereo not drawn) [Compound 32] | > 100 | > 100 | > 100 | – | IC50 [9]: 0.047 ± 0.0079 µM; IC50 [7, 15]: 0.043 µM; FaSSIF Solubility pH 6.5 5 h (pH 6.5): 34 μg/ml; IC50 [10]: > 100 µM; Human Clint [11]: 20 μL/min/mg protein
10 | Cc1cc(Nc2ccc(S(F)(F)(F)(F)F)cc2)n2nc(C(C)(F)F)nc2n1 [DSM265, 2-(1,1-difluoroethyl)-5-methyl-N-[4-(pentafluoro-λ^6-sulfanyl)phenyl]-[1,2,4]triazolo[1,5-a]pyrimidin-7-amine, reference compound] | – | – | – | < 7 | DOR (day of recrudescence) ([4]; SCID mouse): 21; AUCED90 ([4]; SCID mouse, b.i.d. for 6 days): 35.4 μM · h/day; ED90 ([4]; SCID mouse, b.i.d. for 6 days, clears 90% of parasites 24 h post final dose on day 7): 16.7 mg/kg; CED90 ([4]; SCID mouse, b.i.d. for 6 days): 1.48 µM/day; FaSSIF Solubility pH 6.5 5 h (FaSSIF, pH 6.5, 5 h): 5.1 μg/ml; EC50 [12]: 0.19 µM; EC50 [13]: 0.92 µM
11 | N-(1-(1H-1,2,4-triazol-3-yl) ethyl)-4-(3-fluoro-4-(trifluoromethyl)benzyl)-3-methyl-1H-pyrrole-2-carboxamide [Compound 5] | > 100 | – | – | – | IC50 [9]: 0.11 µM; IC50 [7, 15]: 0.061 µM; EC50 [14]: 0.039 µM
